# Measured values reported in patent US8524705B2, “2-oxo-2-(2-phenyl-5,6,7,8-tetrahydro-indolizin-3-yl)-acetamide derivatives and related compounds as antifungal agents” (F2G Limited British Body Corporate, priority 2007, dated 2013).
# Assays:
# Format in all cases: cell-based
# Settings in all cases: banded into grades
# [1] = test system: Aspergillus fumigatus AF210; experiment: Measurement of Minimum Inhibitory Concentrations (MICs), A. fumigatus 210
# Description: (§1) Between 1 and 5 mgs of compound were accurately weighed out into a sterile Eppendorf tube. The compound was dissolved in DMSO to give a solution containing 5 mg/mL. Tubes were stored at −20° C. until required. On the day of testing thawed solutions were vortex mixed to ensure homogeneity. 30 μL of solution was removed and added to 570 μL of sterile water in a separate sterile Eppendorf. The thoroughly mixed solution was used to prepare a series of doubling dilutions in water, in a deep well plate. […] replicate plates were prepared using a Minitrak by aspirating […] from each well into eleven clear polystyrene 96 well plates. Spores of Aspergillus spp. (Aspergillus fumigatus [two strains], Aspergillus terreus [two strains], Aspergillus niger and Aspergillus flavus) were harvested from cultures grown on Sabarauds agar for 5 days, and resuspended in PBS/Tween 80 to approx 1×10^7 cfu/mL. Each organism suspension was diluted in YAG medium (1% glucose, 1% ammonium chloride and 0.5% yeast extract) to 0.5-2×10^4 cfu/mL. 80 μL of an organism suspension was added to each well of the plate containing drug dilutions. This produced MIC plates with a drug range 50-0.05 mg/L and organism inocula of 1−2×10^4 cfu/mL for Aspergillus spp. All plates were incubated for 24 hrs at 35° C. Growth was assessed by monitoring the optical density at 485 nm for each well. The MIC of a compound is the lowest drug concentration that inhibits growth of an organism by >70% compared with a drug free control. MICs are recorded as mg/L. In cases where the MIC of an organism is >=0.05 mg/L the MIC is repeated using a concentration range of 0.5-0.0005 mg/L. Other growth media can be used for susceptibility testing, and the activity of the described compounds was also assessed in RPMI medium containing 2% glucose, and 0.135M MOPS buffer. MIC tests in YAG medium have more clear-cut endpoints and have slightly lower MICs than those performed in RPMI medium. The following organisms were tested: Aspergillus flavus, Aspergillus fumigatus AF293 and AF210, Aspergillus niger and Aspergillus terreus AT4 and AT49.
# [2] = test system: Aspergillus terreus AT4; experiment: Measurement of Minimum Inhibitory Concentrations (MICs), A. terreus
# Description: as §1
# [3] = test system: Aspergillus fumigatus AF293; experiment: Measurement of Minimum Inhibitory Concentrations (MICs), A. fumigatus
# Description: as §1
# [4] = test system: Aspergillus niger; experiment: Measurement of Minimum Inhibitory Concentrations (MICs), A. niger
# Description: as §1
# [5] = test system: Aspergillus terreus AT49; experiment: Measurement of Minimum Inhibitory Concentrations (MICs), A. terreus 49
# Description: as §1
# [6] = test system: Aspergillus flavus; experiment: Measurement of Minimum Inhibitory Concentrations (MICs), A. flavus
# Description: as §1
# [7] = RPMI medium containing 2% glucose, 0.135M MOPS buffer
# [8] = YAG medium, 24 hrs at 35° C., >70% growth inhibition
Compound,"MIC [1, 7] [µg/mL]","MIC [1, 8] [µg/mL]","MIC [2, 7] [µg/mL]","MIC [2, 8] [µg/mL]","MIC [3, 7] [µg/mL]","MIC [3, 8] [µg/mL]","MIC [4, 7] [µg/mL]","MIC [4, 8] [µg/mL]","MIC [5, 7] [µg/mL]","MIC [5, 8] [µg/mL]","MIC [6, 7] [µg/mL]","MIC [6, 8] [µg/mL]"
"Cc1cc(C)nc(N2CCN(c3ccc(NC(=O)C(=O)c4c(-c5ccccc5)cc5n4CCCC5)c(Cl)c3)CC2)c1 [Example 30, N-{2-Chloro-4-[4-(4,6-dimethyl-pyridin-2-yl)-piperazin-1-yl]-phenyl}-2-oxo-2-(2-phenyl-5,6,7,8-tetrahydro-indolizin-3-yl)-acetamide]",< 1,< 1,< 1,< 1,< 1,< 1,< 1,< 1,< 1,< 1,< 1,< 1
"Cc1cc(C)nc(N2CCN(c3ccc(NC(=O)C(=O)c4c(C5CCN(C)CC5)cc5n4CCCC5)cc3)CC2)c1 [Example 11, N-{4-[4-(4,6-Dimethyl-pyridin-2-yl)-piperazin-1-yl]-phenyl}-2-[2-(1-methyl-piperidin-4-yl)-5,6,7,8-tetrahydro-indolizin-3-yl]-2-oxo-acetamide]",> 10,> 10,> 10,> 10,> 10,> 10,> 10,> 10,> 10,> 10,> 10,> 10
"Cc1cc(C)nc(N2CCN(c3ccc(NC(=O)C(=O)c4c(-c5ccccc5)cc5n4CCCC5)cc3COCCN(C)C)CC2)c1 [Example 29, N-{3-(2-Dimethylamino-ethoxymethyl)-4-[4-(4,6-dimethyl-pyridin-2-yl)-piperazin-1-yl]-phenyl}-2-oxo-2-(2-phenyl-5,6,7,8-tetrahydro-indolizin-3-yl)-acetamide]",> 10,1 to 10,> 10,1 to 10,> 10,> 10,1 to 10,> 10,1 to 10,1 to 10,> 10,> 10
"CC(C)(C)CN1CCN(c2ccc(NC(=O)C(=O)c3c(-c4ccccc4)cc4n3CCCC4)cc2)CC1 [Example 2, N-{4-[4-(2,2-dimethyl-propyl)-piperazin-1-yl]-phenyl}-2-oxo-2-(2-phenyl-5,6,7,8-tetrahydro-indolizin-3-yl)-acetamide]",< 1,< 1,< 1,< 1,< 1,< 1,< 1,< 1,< 1,< 1,< 1,< 1
"Cc1cc(C)nc(N2CCN(c3ccc(NC(=O)C(=O)c4c(-c5ccccc5)cc5n4CCCC5)cc3)CC2)c1 [Example 3, N-{4-[4-(4,6-dimethyl-pyridin-2-yl)-piperazin-1-yl]-phenyl}-2-oxo-2-(2-phenyl-5,6,7,8-tetrahydro-indolizin-3-yl)-acetamide]",< 1,< 1,< 1,< 1,< 1,< 1,< 1,< 1,< 1,< 1,< 1,< 1
"COc1cc(C)nc(N2CCN(c3ccc(NC(=O)C(=O)c4c(-c5ccccc5)cc5n4CCCC5)cc3)CC2)c1 [Example 8, N-{4-[4-(4-Methoxy-6-methyl-pyridin-2-yl)-piperazin-1-yl]-phenyl}-2-oxo-2-(2-phenyl-5,6,7,8-tetrahydro-indolizin-3-yl)-acetamide]",1 to 10,< 1,< 1,< 1,< 1,< 1,1 to 10,1 to 10,< 1,< 1,1 to 10,< 1
"Cc1cc(C)nc(N(C)CCCN(C)c2ccc(NC(=O)C(=O)c3c(-c4ccccc4)cc4n3CCCC4)cc2)c1 [Example 19, N-[4-({3-[(4,6-Dimethyl-pyridin-2-yl)-methyl-amino]-propyl}-methyl-amino)-phenyl]-2-oxo-2-(2-phenyl-5,6,7,8-tetrahydro-indolizin-3-yl)-acetamide]",< 1,< 1,< 1,< 1,< 1,< 1,< 1,< 1,< 1,< 1,< 1,< 1
"COCc1cc(N2CCN(c3cc(C)cc(C)n3)CC2)ccc1NC(=O)C(=O)c1c(-c2ccccc2)cc2n1CCCC2 [Example 24, N-{4-[4-(4,6-Dimethyl-pyridin-2-yl)-piperazin-1-yl]-2-methoxymethyl-phenyl}-2-oxo-2-(2-phenyl-5,6,7,8-tetrahydro-indolizin-3-yl)-acetamide]",1 to 10,< 1,< 1,< 1,1 to 10,< 1,1 to 10,< 1,< 1,< 1,1 to 10,< 1
"Cc1cc(C)nc(N2CCN(c3ccc(NC(=O)C(=O)c4c(-c5ccccc5)cc5n4CCCC5)cc3C)CC2)c1 [Example 22, N-{4-[4-(4,6-Dimethyl-pyridin-2-yl)-piperazin-1-yl]-3-methyl-phenyl}-2-oxo-2-(2-phenyl-5,6,7,8-tetrahydro-indolizin-3-yl)-acetamide]",< 1,< 1,< 1,< 1,< 1,< 1,< 1,< 1,< 1,< 1,< 1,< 1
"CCc1cccc(N2CCN(c3ccc(NC(=O)C(=O)c4c(-c5ccccc5)cc5n4CCCC5)cc3)CC2)n1 [Example 15, N-{4-[4-(6-Ethyl-pyridin-2-yl)-piperazin-1-yl]-phenyl}-2-oxo-2-(2-phenyl-5,6,7,8-tetrahydro-indolizin-3-yl)-acetamide]",< 1,< 1,< 1,< 1,< 1,< 1,< 1,< 1,< 1,< 1,< 1,< 1
"O=C(Nc1ccc2c(c1)OCC2)C(=O)c1c(-c2ccccc2)cc2n1CCCC2 [Example 32, N-(2,3-Dihydro-benzofuran-6-yl)-2-oxo-2-(2-phenyl-5,6,7,8-tetrahydro-indolizin-3-yl)-acetamide]",1 to 10,< 1,< 1,< 1,1 to 10,< 1,< 1,< 1,< 1,< 1,1 to 10,< 1
"COCc1cc(NC(=O)C(=O)c2c(-c3ccccc3)cc3n2CCCC3)ccc1N1CCN(c2cc(C)cc(C)n2)CC1 [Example 23, N-{4-[4-(4,6-Dimethyl-pyridin-2-yl)-piperazin-1-yl]-3-methoxymethyl-phenyl}-2-oxo-2-(2-phenyl-5,6,7,8-tetrahydro-indolizin-3-yl)-acetamide]",< 1,< 1,< 1,< 1,< 1,< 1,< 1,< 1,< 1,< 1,< 1,< 1
"O=C(Nc1ccc(N2CCN(c3ccc(CN4CCOCC4)cn3)CC2)cc1)C(=O)c1c(-c2ccccc2)cc2n1CCCC2 [Example 18, N-{4-[4-(5-Morpholin-4-ylmethyl-pyridin-2-yl)-piperazin-1-yl]-phenyl}-2-oxo-2-(2-phenyl-5,6,7,8-tetrahydro-indolizin-3-yl)-acetamide]",< 1,< 1,< 1,< 1,< 1,< 1,< 1,< 1,< 1,< 1,< 1,< 1
